According to patent US7645781B2, “N-aryl-2-oxazolidinone-5-carboxamides and their derivatives” (Pfizer Inc, priority 2002, dated 2010):
In brackets after ≈: the same amount, converted by molar mass.

These compounds were tested on Staphylococcus aureus (SAUR 9213) (assay: MIC by standard agar dilution method). Details: Mueller Hinton agar, incubated overnight at 35° C.
Assay type: cell-based
Text: The antibacterial agents of this invention have useful activity against a variety of organisms. The in vitro activity of compounds of this invention can be assessed by standard testing procedures such as the determination of minimum inhibitory concentration (MIC) by agar dilution as described in “Approved Standard. Methods for Dilution Antimicrobial Susceptibility Tests for Bacteria That Grow Aerobically”, 3rd. ed., published 1993 by the National Committee for Clinical Laboratory Standards, Villanova, Pa., USA. The in vitro MICs of test compounds are determined by a standard agar dilution method. A stock drug solution of each analog is prepared in the preferred solvent, usually DMSO:H2O (1:3). Serial 2-fold dilutions of each sample are made using 1.0 ml aliquots of sterile distilled water. To each 1.0 ml aliquot of drug is added 9 ml of molten Mueller Hinton agar medium. The drug-supplemented agar is mixed, poured into 15×100 mm petri dishes, and allowed to solidify and dry prior to inoculation. Vials of each of the test organisms are maintained frozen in the vapor phase of a liquid nitrogen freezer. Test cultures are grown overnight at 35° C. on the medium appropriate for the organism. Colonies are harvested with a sterile swab, and cell suspensions are prepared in Trypticase Soy broth (TSB) to equal the turbidity of a 0.5 McFarland standard. A 1:20 dilution of each suspension is made in TSB. The plates containing the drug supplemented agar are inoculated with a 0.001 ml drop of the cell suspension using a Steers replicator, yielding approximately 10^4 to 10^5 cells per spot. The plates are incubated overnight at 35° C. Following incubation the Minimum Inhibitory Concentration (MIC μg/ml), the lowest concentration of drug that inhibits visible growth of the organism, is read and recorded.

MIC	SMILES
4 µg/mL (≈ 11.3 µM)	N=S1(=O)CCC(c2ccc(N3C[C@H](C(N)=O)OC3=O)cc2F)CC1 (stereo in doubt) [Example 56, (5R)-3-[4-(cis-1-Imino-1-oxido-1,1,3,4,5,6-hexahydro-2H-thiopyran-4-yl)-3-fluorophenyl]-2-oxo-5-oxazolidinecarboxamide]

Same assay, conditions: Mueller Hinton agar, incubated overnight at 35° C., read-out: MIC

MIC	SMILES
1 µg/mL (≈ 2.99 µM)	NC(=O)[C@H]1CN(c2ccc(N3C=CC(=NO)CC3)c(F)c2)C(=O)O1 (racemic) [Example 79, (5R)-3-[4-[3,4-Dihydro-4-(hydroxyimino)-1(2H)-pyridinyl]-3-fluorophenyl]-2-oxo-5-oxazolidinecarboxamide]
4 µg/mL (≈ 11.2 µM)	NC(=O)[C@H]1CN(c2cc(F)c([C@H]3CC[S@+]([O-])CC3)c(F)c2)C(=O)O1 [Example 47, (5R)-(−)-3-[3,5-Difluoro-4-(trans-tetrahydro-1-oxido-2H-thiopyran-4-yl)phenyl]-2-oxo-5-oxazolidinecarboxamide]
2 µg/mL (≈ 5.37 µM)	CNC(=O)[C@H]1CN(c2cc(F)c([C@H]3CC[S@+]([O-])CC3)c(F)c2)C(=O)O1 [Example 48, (5R)-N-Methyl-3-[3,5-difluoro-4-(trans-tetrahydro-1-oxido-2H-thiopyran-4-yl)phenyl]-2-oxo-5-oxazolidinecarboxamide]
8 µg/mL (≈ 21.7 µM)	COC(=O)N1CC(C)(c2c(F)cc(N3C[C@H](C(N)=O)OC3=O)cc2F)C1 [Example 57, (5R)-(−)-3-[3,5-Difluoro-4-(1-methoxycarbonyl-3-methylazetidin-3-yl)phenyl]-2-oxo-5-oxazolidinecarboxamide]
8 µg/mL (≈ 20.9 µM)	CNC(=O)[C@H]1CN(c2cc(F)c(C3(C)CN(C(=O)OC)C3)c(F)c2)C(=O)O1 [Example 58, (5R)-(−)-N-Methyl-3-[3,5-difluoro-4-(1-methoxycarbonyl-3-methylazetidin-3-yl)phenyl]-2-oxo-5-oxazolidinecarboxamide]
2 µg/mL (≈ 6.87 µM)	CN1C(=O)COc2cc(N3C[C@H](C(N)=O)OC3=O)ccc21 [Example 59, (5R)-3-(3,4-Dihydro-4-methyl-3-oxo-2H-1,4-benzoxazin-7-yl) -2-oxo-5-oxazolidinecarboxamide]
2 µg/mL (≈ 6.55 µM)	CNC(=O)[C@H]1CN(c2ccc3c(c2)OCC(=O)N3C)C(=O)O1 [Example 60, (5R)-N-Methyl-3-(3,4-dihydro-4-methyl-3-oxo-2H-1,4-benzoxazin-7-yl)-2-oxo-5-oxazolidinecarboxamide]
8 µg/mL (≈ 23.7 µM)	CN1C(=O)COc2cc(N3C[C@H](C(=O)NCCF)OC3=O)ccc21 [Example 61, (5R)-N-(2-Fluoroethyl)-3-(3,4-dihydro-4-methyl-3-oxo-2H -1,4-benzoxazin-7-yl)-2-oxo-5-oxazolidinecarboxamide]
4 µg/mL (≈ 13 µM)	CN1C(=O)CSc2cc(N3C[C@H](C(N)=O)OC3=O)ccc21 [Example 62, (5R)-3-(3,4-Dihydro-4-methyl-3-oxo-2H-1,4-benzothiazin-7-yl)-2-oxo-5-oxazolidinecarboxamide]
4 µg/mL (≈ 12.4 µM)	CNC(=O)[C@H]1CN(c2ccc3c(c2)SCC(=O)N3C)C(=O)O1 [Example 63, (5R)-N-Methyl-3-(3,4-dihydro-4-methyl-3-oxo-2H-1,4-benzothiazin-7-yl)-2-oxo-5-oxazolidinecarboxamide]
2 to 4 µg/mL (≈ 5.36 to 10.7 µM)	NC(=O)[C@H]1CN(c2cc(F)c(N3C=CS(=O)(=O)CC3)c(F)c2)C(=O)O1 [Example 65, (5R)-3-[4-(1,1-dioxido-2,3-dihydro-4H-1,4-thiazin-4-yl)-3,5-difluorophenyl]-2-oxo-5-oxazolidinecarboxamide]
4 µg/mL (≈ 12.9 µM)	NC(=O)[C@H]1CN(c2cc(F)c(N3CC=CC3)c(F)c2)C(=O)O1 [Example 66, (5R)-3-[4-(2,5-Dihydro-1H-pyrrol-1-yl)-3,5-difluorophenyl]-2-oxo-5-oxazolidinecarboxamide]
2 µg/mL (≈ 6.91 µM)	CN1C(=O)CCc2cc(N3C[C@H](C(N)=O)OC3=O)ccc21 [Example 67, (5R)-3-(1-Methyl-2-oxo-1,2,3,4-tetrahydroquinolin-6-yl)-2-oxo-5-oxazolidinecarboxamide]
4 µg/mL (≈ 13.2 µM)	CNC(=O)[C@H]1CN(c2ccc3c(c2)CCC(=O)N3C)C(=O)O1 [Example 68, (5R)-N-Methyl-3-(1-methyl-2-oxo-1,2,3,4-tetrahydroquinolin-6-yl)-2-oxo-5-oxazolidinecarboxamide]
2 µg/mL (≈ 6.26 µM)	NC(=O)[C@H]1CN(c2ccc(N3C=CC(=O)CC3)c(F)c2)C(=O)O1 [Example 69, (5R)-3-[4-(4-Oxo-3,4-dihydro-1(2H)-pyridinyl)-3-fluorophenyl]-2-oxo-5-oxazolidinecarboxamide]
2 µg/mL (≈ 6 µM)	CNC(=O)[C@H]1CN(c2ccc(N3C=CC(=O)CC3)c(F)c2)C(=O)O1 [Example 70, (5R)-N-Methyl-3-[4-(4-oxo-3,4-dihydro-1(2H)-pyridinyl)-3-fluorophenyl]-2-oxo-5-oxazolidinecarboxamide]

MIC	SMILES
4 µg/mL (≈ 11.5 µM)	CCNC(=O)[C@H]1CN(c2ccc(N3C=CC(=O)CC3)c(F)c2)C(=O)O1 [Example 71, (5R)-N-Ethyl-3-[4-(4-oxo-3,4-dihydro-1(2H)-pyridinyl)-3-fluorophenyl]-2-oxo-5-oxazolidinecarboxamide]
2 µg/mL (≈ 6.64 µM)	NC(=O)[C@H]1CN(c2ccc(N3C=CC(=O)CC3)cc2)C(=O)O1 [Example 72, (5R)-3-[4-(4-Oxo-3,4-dihydro-1(2H)-pyridinyl)phenyl]-2-oxo-5-oxazolidinecarboxamide]
2 µg/mL (≈ 6.34 µM)	CNC(=O)[C@H]1CN(c2ccc(N3C=CC(=O)CC3)cc2)C(=O)O1 [Example 73, (5R)-N-Methyl-3-[4-(4-oxo-3,4-dihydro-1(2H)-pyridinyl)phenyl]-2-oxo-5-oxazolidinecarboxamide]
8 µg/mL (≈ 24.3 µM)	CCNC(=O)[C@H]1CN(c2ccc(N3C=CC(=O)CC3)cc2)C(=O)O1 [Example 74, (5R)-N-Ethyl-3-[4-(4-oxo-3,4-dihydro-1(2H)-pyridinyl)phenyl]-2-oxo-5-oxazolidinecarboxamide]
8 µg/mL (≈ 23 µM)	O=C1C=CN(c2ccc(N3C[C@H](C(=O)NCCF)OC3=O)cc2)CC1 [Example 75, (5R)-N-(2-Fluoroethyl)-3-[4-(4-oxo-3,4-dihydro-1(2H)-pyridinyl)phenyl]-2-oxo-5-oxazolidinecarboxamide]
4 µg/mL (≈ 11.9 µM)	NC(=O)[C@H]1CN(c2cc(F)c(N3C=CC(=O)CC3)c(F)c2)C(=O)O1 [Example 76, (5R)-3-[4-(4-Oxo-3,4-dihydro-1(2H)-pyridinyl)-3,5-difluorophenyl]-2-oxo-5-oxazolidinecarboxamide]
2 µg/mL (≈ 5.69 µM)	CNC(=O)[C@H]1CN(c2cc(F)c(N3C=CC(=O)CC3)c(F)c2)C(=O)O1 [Example 77, (5R)-N-Methyl-3-[4-(4-oxo-3,4-dihydro-1(2H)-pyridinyl)-3,5-difluorophenyl]-2-oxo-5-oxazolidinecarboxamide]
8 µg/mL (≈ 21.9 µM)	CCNC(=O)[C@H]1CN(c2cc(F)c(N3C=CC(=O)CC3)c(F)c2)C(=O)O1 [Example 78, (5R)-N-Ethyl-3-[4-(4-oxo-3,4-dihydro-1(2H)-pyridinyl)-3,5-difluorophenyl]-2-oxo-5-oxazolidinecarboxamide]
2 µg/mL (≈ 6.11 µM)	CN1C(=O)C(F)(F)Oc2cc(N3C[C@H](C(N)=O)OC3=O)ccc21 [Example 80, (5R)-3-(2,2-Difluoro-4-methyl-3,4-dihydro-3-oxo-2H-1,4-benzoxazin-7-yl)-2-oxo-5-oxazolidinecarboxamide]
4 µg/mL (≈ 11.7 µM)	CNC(=O)[C@H]1CN(c2ccc3c(c2)OC(F)(F)C(=O)N3C)C(=O)O1 [Example 81, (5R)-N-Methyl-3-(2,2-difluoro-4-methyl-3,4-dihydro-3-oxo-2H-1,4-benzoxazin-7-yl)-2-oxo-5-oxazolidinecarboxamide]
2 µg/mL (≈ 6.18 µM)	CN1C(=S)CSc2cc(N3C[C@H](C(N)=O)OC3=O)ccc21 [Example 84, 3-(4-Methyl-3-thioxo-3,4-dihydro-2H-1,4-benzothiazin-7-yl)-2-oxo-5-oxazolidinecarboxamide]
2 µg/mL (≈ 5.64 µM)	CNC(=O)[C@H]1CN(c2ccc([C@H]3CC[S@+]([O-])CC3)c(F)c2)C(=O)O1 [Example 85, (5R)-N-Methyl-3-[3-fluoro-4-(trans-tetrahydro-1-oxido-2H-thiopyran-4-yl)phenyl]-2-oxo-5-oxazolidinecarboxamide]
4 µg/mL (≈ 13.5 µM)	Cn1c(=O)oc2cc(N3C[C@H](C(N)=O)OC3=O)cc(F)c21 [Example 86, (5R)-3-(4-Fluoro-3-methyl-2-oxo-2,3-dihydro-6-benzoxazolyl)-2-oxo-5-oxazolidinecarboxamide]
2 µg/mL (≈ 6.47 µM)	CCn1c(=O)oc2cc(N3C[C@H](C(N)=O)OC3=O)cc(F)c21 [Example 87, (5R)-3-(3-Ethyl-4-fluoro-2-oxo-2,3-dihydro-6-benzoxazolyl) -2-oxo-5-oxazolidinecarboxamide]
4 µg/mL (≈ 12.4 µM)	CC(C)n1c(=O)oc2cc(N3C[C@H](C(N)=O)OC3=O)cc(F)c21 [Example 88, (5R)-3-(4-Fluoro-3-isopropyl-2-oxo-2,3-dihydro-6-benzoxazolyl)-2-oxo-5-oxazolidinecarboxamide]
16 µg/mL (≈ 51.7 µM)	CNC(=O)[C@H]1CN(c2cc(F)c3c(c2)oc(=O)n3C)C(=O)O1 [Example 89, (5R)-3-(4-Fluoro-3-methyl-2-oxo-2,3-dihydro-6-benzoxazolyl)-N-methyl-2-oxo-5-oxazolidinecarboxamide]
